Experiments:
[1] = Solubility in distilled water; assay type: physicochemical; details: distilled water at 25° C
Excerpt: (§1) The product is removed from the internal mixer and passed through the cooled rolls of a 3×8 inch roller mill to form a 0.8 mm thick film, with portions of the film compression molded between heated plattens of a hydraulic press to form 0.4 mm thick film. The film is cooled, and elliptical ocular shaped devices are punched from the dry film.

[2] = Osmotic pressure of the solute (vapor pressure osmometer); assay type: physicochemical
Excerpt: The osmotic pressure, ATM, of the solute can be measured in a commercially available osmometer that measures the vapor pressure difference between pure water and a solution containing a solute to be analyzed, and according to standard thermodynamic principles, the vapor pressure ratio is converted into an osmotic pressure. An osmometer that can be used for the present measurements is the Model 302B, Vapor Pressure Osmometer, manufactured by the Hewlett Packark Company, Avondale, Pennsylvania.
as §1

[3] = test system: intraocular pressure associated with glaucoma; details: liquid eyedrops; cited from earlier work

SMILES | solubility [1] | osmotic pressure [2] | lowering of intraocular pressure [3]
COCCc1ccc(OCC(O)CNC(C)C)cc1.O=C(O)C(O)C(O)C(=O)O (racemic) [(±)-1-[4-(2-methoxyethyl)-phenoxy]-3-[(1-methylethyl)amino]-2-propanol tartrate] | 860 mg/mL | 210 atm | –
CC(C)(C)NC[C@H](O)COc1nsnc1N1CCOCC1 [timolol] | – | – | lowering intraocular pressure associated with glaucoma

From US4303637A, “Medication indicated for ocular hypertension” (priority 1980, dated 1981)
